Earlier results on one compound are cited in US20230364242A1, “WATER-SOLUBLE COMPLEX CONTAINING BETA BLOCKER AND LECITHIN” (NISSAN CHEMICAL CORPORATION, priority 2020, published 2023).

The conditions of this data set: literature reports.

Consider `CC(C)NCC(O)COc1cccc2ccccc12` (stereo not shown) [propranolol], for which the photolysis result is “decomposition particularly proceeds in an aqueous solution”.
